Test results: patent publication US6265611A, “Hydroxymandelic acid amides of phenolic amines” (Haarmann & Reimer GmbH, priority 1999, dated 2001)

Legend:
[1] = DPPH test, activity as free-radical scavenger; assay type: biochemical; conditions: EC = c(test compound)/c(DPPH); DPPH 100 μmol/l in methanol; absorption at 515 nm
Description: The activity of the compounds according to Examples 1 to 7 as free-radical scavengers was compared with the conventional free-radical scavenger. For this purpose, the DPPH (1,1-diphenyl-2-picryl-hydrazyl) test for the removal of […] was used.
DPPH was dissolved in methanol to a concentration of 100 μmol/l. A series of dilutions of the illustrative compound, vitamin C, α tocopherol, butylated hydroxytoluene and ferulic acid in methanol were prepared. Methanol was used as the control. 2500 μl of the DPPH solution were mixed with 500 μl of each test solution and the decrease in absorption at 515 nm was read until the decrease was less than 2% per hour. The activity of the test substances as free-radical scavengers was calculated using the following equation:
Activity as free-radical scavenger (%)=100-(absorption of the test
compounds)/ (absorption of the control)×100.

[2] = Activity as antioxidants: accelerated autoxidation of lipids by air (Rancimat); conditions: AOI = IP(with test solution)/IP(control sample); 0.05% test substance; soybean oil, 100° C., air 20 l/h
Description: The activity of the illustrative compounds 1 to 7 as antioxidants was compared with that of traditional antioxidants. The test system used was the accelerated autoxidation of lipids by air with or without antioxidant using the Rancimat apparatus (Rancimat is a registered trade mark of Metrohm AG, Herisau, Switzerland). The illustrative compounds, vitamin C, α-tocopherol, ferulic acid and butylated hydroxytoluene were dissolved in methanol or acetone, and 100 μl of each test solution were added to a 3 g prepared oil sample (soybean oil, purified over alumina type N). In a control sample, only solvent was added. A constant, dry stream of air (20 l/h) was blown through the oil sample, which contained the test solution and was heated to 100° C., and the volatile oxidation product (predominantly short-chain fatty acids such as formic or acetic acid) were collected in a trap containing water. The conductivity of this aqueous solution was continuously measured and recorded. […] The time to the increase is referred to as the induction period (IP). The following equation was used to calculate the antioxidative index (AOI): AOI=IP(with test solution) /IP(control sample)

[3] = Solubility in aqueous media (water/DMSO 95:5); assay type: physicochemical
Description: The aqueous medium used by way, of example, was a mixture of 95 parts by weight of water and 5 parts by weight of DMSO. The compounds to be tested were weighed into a glass vessel, admixed with a defined amount of solvent and treated with ultrasound at room temperature for 5 min.

EC50 (effective relative concentration at which 50% of the free radical DPPH had been removed) [1] [mol/mol]	Solubility in a mixture of water (95 parts by weight) and DMSO (5 parts by weight) [3]	Structure (SMILES)	antioxidative index (AOI) with 0.05% of test substance [2]
0.240		Cc1cc(C(C)(C)C)c(O)c(C(C)(C)C)c1 [Butylated hydroxytoluene, reference compound]	4.77
0.131	5-10 % by weight	COc1cc(C(O)C(=O)NCCc2ccc(O)c(O)c2)ccc1O (centres unmarked) [Example 1, N-(3,4-dihydroxyphenethyl)-2-hydroxy-2-(4-hydroxy-3 methoxyphenyl)acetamide]	13.0
0.104	> 10 % by weight	O=C(NCCc1ccc(O)c(O)c1)C(O)c1ccc(O)c(O)c1 (centres unmarked) [Example 2, N-(3,4-dihydroxyphenethyl)-2-(3,4-dihydroxyphenyl)-2-hydroxyacetamide]	16.9
0.195	> 10 % by weight	COc1cc(C(O)C(=O)NCc2ccc(O)c(O)c2)ccc1O (centres unmarked) [Example 3, N-(3,4-dihydroxybenzyl)-2-hydroxy-2-(4-hydroxy-3methoxyphenyl)acetamide]	9.8
0.198	0.5-1 % by weight	COc1cc(C(O)C(=O)NCc2cc(O)c(O)c(O)c2)ccc1O (centres unmarked) [Example 4, 2-Hydroxy-2-(4-hydroxy-3-methoxyphenyl)-N-(3,4,5-trihydroxybenzyl)acetamide]	11.0
0.199	0.05-0.1 % by weight	COc1cc(CNC(=O)C(O)c2ccc(O)c(O)c2)ccc1O (centres unmarked) [Example 5, 2-(3,4-Dihydroxyphenyl)-2-hydroxy-N-(4-hydroxy-3 methoxybenzyl)acetamide]	12.6
0.069	0.1-0.5 % by weight	O=C(NCc1ccc(O)c(O)c1)C(O)c1ccc(O)c(O)c1 (centres unmarked) [Example 6, N-(3,4-dihydroxybenzyl)-2-(3,4-dihydroxyphenyl)-2-hydroxyacetamide]	17.5
0.085	0.5-1 % by weight	O=C(NCc1cc(O)c(O)c(O)c1)C(O)c1ccc(O)c(O)c1 (centres unmarked) [Example 7, 2-(3,4-Dihydroxyphenyl)-2-hydroxy-N-(3,4,5-trihydroxybenzyl)acetamide]	16.4
0.350		COc1cc(/C=C/C(=O)O)ccc1O [Ferulic acid, reference compound]	1.79
0.270		O=C1O[C@H]([C@@H](O)CO)C(O)=C1O [Vitamin C, ascorbic acid, reference compound]	1.17
0.250		Cc1c(C)c2c(c(C)c1O)CCC(C)(CCCC(C)CCCC(C)CCCC(C)C)O2 (stereo not drawn) [α-Tocopherol, reference compound]	5.05
